Source: US7138361B2, “Herbicidal heterocycles” (E. I. du Pont de Nemours and Company, priority 2000, dated 2006)

How the values were obtained:
Assay type in all cases: in vivo
[1] = tested on: rice (Oryza saliva); assay: Test C flooded paddy test; conditions: for Rice plant response rating: Flooded Paddy, scale 0 to 100, 0 no effect, 100 complete control; for Plant response rating, Rice: flooded paddy test, scale 0 to 100 (0 no effect, 100 complete control)
Experimental: (§1) At the same time, plants selected from these crop and weed species and also winter barley (Hordeum vulgare), blackgrass (Alopecurus myosuroides), canary grass (Phalaris minor), chickweed (Stellaria media), downy brome (Bromus tectorum), green foxtail (Setaria viridis), Italian ryegrass (Lolium multiflorum), wheat (Triticum aestivum), wild oat (Avena fatua) and windgrass (Apera spica-venti) were treated with postemergence applications of some of the test chemicals formulated in the same manner. Plants ranged in height from 2 to 18 cm (1- to 4-leaf stage) for postemergence treatments. Plant species in the flooded paddy test consisted of rice (Oryza saliva), smallflower flatsedge (Cyperus difformis), duck salad (Heteranthera limosa) and barnyardgrass (Echinochloa crus-galli) grown to the 2-leaf stage for testing. Treated plants and controls were maintained in a greenhouse for 12 to 14 days, after which time all species were compared to controls and visually evaluated. Plant response ratings, summarized in Table C, are based on a scale of 0 to 100 where 0 is no effect and 100 is complete control. A dash (-) response means no test result.

[2] = tested on: barnyardgrass (Echinochloa crus-galli); assay: Test C flooded paddy test; conditions: for Barnyardgrass plant response rating: Flooded Paddy, scale 0 to 100, 0 no effect, 100 complete control; for Plant response rating, Barnyardgrass: flooded paddy test, scale 0 to 100 (0 no effect, 100 complete control)
Experimental: as §1

[3] = tested on: smallflower flatsedge (Cyperus difformis); assay: Test C flooded paddy test; conditions: for Flatsedge plant response rating: Flooded Paddy, scale 0 to 100, 0 no effect, 100 complete control; for Plant response rating, Flatsedge: flooded paddy test, scale 0 to 100 (0 no effect, 100 complete control)
Experimental: as §1

[4] = tested on: duck salad (Heteranthera limosa); assay: Test C flooded paddy test; conditions: for Ducksalad plant response rating: Flooded Paddy, scale 0 to 100, 0 no effect, 100 complete control; for Plant response rating, Ducksalad: flooded paddy test, scale 0 to 100 (0 no effect, 100 complete control)
Experimental: as §1

[5] = tested on: giant foxtail (Setaria faberii); assay: Test B postemergence; conditions: 13 to 15 days
Source text: (§2) Seeds selected from barnyardgrass (Echinochloa crus-galli), Surinam grass (Brachiaria decumbens), cocklebur (Xanthium strumarium), corn (Zea mays), crabgrass (Digitaria sanguinalis), giant foxtail (Setaria faberii), lambsquarters (Chenopodium album), morning glory (Ipomoea hederacea), pigweed (Amaranthus retroflexus), rice (Oryza saliva) and velvetleaf (Abutilon theophrasti) were planted and treated preemergence with test chemicals formulated in a non-phytotoxic solvent mixture which included a surfactant.
(§3) At the same time, plants selected from these crop and weed species and also blackgrass (Alopecurus myosuroides), wheat (Triticum aestivum) and wild oat (Avena fatua) were treated with postemergence applications of test chemicals formulated in the same manner. Plants ranged in height from 2 to 18 cm (1- to 4-leaf stage) for postemergence treatments. Plant species in the flooded paddy test consisted of rice (Oryza saliva), smallflower flatsedge (Cyperus difformis), duck salad (Heteranthera limosa) and barnyardgrass (Echinochloa crus-galli) grown to the 2-leaf stage for testing. Treated plants and controls were maintained in a greenhouse for 13 to 15 days, after which time all species were compared to controls and visually evaluated. Plant response ratings, summarized in Table B, are based on a scale of 0 to 100 where 0 is no effect and 100 is complete control. A dash (-) response means no test result.

[6] = tested on: wheat (Triticum aestivum); assay: Test B postemergence; conditions: Rate 500 g/ha, scale 0 to 100, 0 is no effect, 100 is complete control, 13 to 15 days
Source text: as §2, §3

[7] = tested on: pigweed (Amaranthus retroflexus); assay: Test B postemergence; conditions: Rate 500 g/ha, scale 0 to 100, 0 is no effect, 100 is complete control, 13 to 15 days
Source text: as §2, §3

[8] = tested on: Surinam grass (Brachiaria decumbens); assay: Test B postemergence; conditions: 13 to 15 days
Source text: as §2, §3

[9] = tested on: wild oat (Avena fatua); assay: Test B postemergence; conditions: Rate 500 g/ha, scale 0 to 100, 0 is no effect, 100 is complete control, 13 to 15 days
Source text: as §2, §3

[10] = tested on: morning glory (Ipomoea hederacea); assay: Test B postemergence; conditions: Rate 500 g/ha, scale 0 to 100, 0 is no effect, 100 is complete control, 13 to 15 days
Source text: as §2, §3

[11] = tested on: corn (Zea mays); assay: Test B postemergence; conditions: 13 to 15 days
Source text: as §2, §3

[12] = tested on: crabgrass (Digitaria sanguinalis); assay: Test B postemergence; conditions: 13 to 15 days
Source text: as §2, §3

[13] = tested on: lambsquarters (Chenopodium album); assay: Test B postemergence; conditions: Rate 500 g/ha, scale 0 to 100, 0 is no effect, 100 is complete control, 13 to 15 days
Source text: as §2, §3

[14] = tested on: blackgrass (Alopecurus myosuroides); assay: Test B postemergence; conditions: 13 to 15 days
Source text: as §2, §3

[15] = tested on: barnyardgrass (Echinochloa crus-galli); assay: Test B postemergence; conditions: 13 to 15 days
Source text: as §2, §3

[16] = tested on: velvetleaf (Abutilon theophrasti); assay: Test B postemergence; conditions: Rate 500 g/ha, scale 0 to 100, 0 is no effect, 100 is complete control, 13 to 15 days
Source text: as §2, §3

[17] = tested on: giant foxtail (Setaria faberii); assay: Test B preemergence
Source text: as §2, §3

[18] = tested on: rice (Oryza saliva); assay: Test B preemergence
Source text: as §2, §3

[19] = tested on: pigweed (Amaranthus retroflexus); assay: Test B preemergence
Source text: as §2, §3

[20] = tested on: Surinam grass (Brachiaria decumbens); assay: Test B preemergence
Source text: as §2, §3

[21] = tested on: cocklebur (Xanthium strumarium); assay: Test B preemergence
Source text: as §2, §3

[22] = tested on: morning glory (Ipomoea hederacea); assay: Test B preemergence
Source text: as §2, §3

[23] = tested on: corn (Zea mays); assay: Test B preemergence
Source text: as §2, §3

[24] = tested on: crabgrass (Digitaria sanguinalis); assay: Test B preemergence
Source text: as §2, §3

[25] = tested on: lambsquarters (Chenopodium album); assay: Test B preemergence
Source text: as §2, §3

[26] = tested on: barnyardgrass (Echinochloa crus-galli); assay: Test B preemergence
Source text: as §2, §3

[27] = tested on: velvetleaf (Abutilon theophrasti); assay: Test B preemergence
Source text: as §2, §3

[28] = Rate 125 g/ha, scale 0 (no effect) to 100 (complete control)
[29] = Rate 500 g/ha, scale 0 to 100, 0 is no effect, 100 is complete control
[30] = Preemergence, Rate 500 g/ha, scale 0 to 100, 0 no effect, 100 complete control
[31] = preemergence, Rate 125 g/ha, scale of 0 to 100 where 0 is no effect and 100 is complete control, 13 to 15 days

Question: Which results are given for `CC(C)(C)c1ccn(C2CCN(c3ccc4c(c3)CCC4)C2=O)n1` (centres unmarked) [Compound 105]?
Answer: Rice plant response rating ([1]; Rate 250 g/ha): 20; Rice plant response rating ([1]; Rate 500 g/ha): 30; Plant response rating, Rice ([1]; Rate 62 g/ha): 0; Plant response rating, Rice ([1]; Rate 125 g/ha): 0; Barnyardgrass plant response rating ([2]; Rate 250 g/ha): 20; Barnyardgrass plant response rating ([2]; Rate 500 g/ha): 60; Plant response rating, Barnyardgrass ([2]; Rate 62 g/ha): 0; Plant response rating, Barnyardgrass ([2]; Rate 125 g/ha): 0; Flatsedge plant response rating ([3]; Rate 250 g/ha): 90; Flatsedge plant response rating ([3]; Rate 500 g/ha): 90; Plant response rating, Flatsedge ([3]; Rate 62 g/ha): 40; Plant response rating, Flatsedge ([3]; Rate 125 g/ha): 90; Ducksalad plant response rating ([4]; Rate 250 g/ha): 0; Ducksalad plant response rating ([4]; Rate 500 g/ha): 0; Plant response rating, Ducksalad ([4]; Rate 62 g/ha): 0; Plant response rating, Ducksalad ([4]; Rate 125 g/ha): 0; Plant response rating, Foxtail, Giant [5, 28]: 0; Plant response rating, Foxtail, Giant [5, 29]: 0; Plant response rating, Wheat [6]: 0; Plant response rating, Pigweed [7]: 0; Plant response rating, Surinam grass [8, 28]: 0; Plant response rating, Surinam grass [8, 29]: 0; Plant response rating, Wild Oat [9]: 0; Plant response rating, Morningglory [10]: 0; Plant response rating, Corn [11, 28]: 0; Plant response rating, Corn [11, 29]: 0; Plant response rating, Crabgrass [12, 28]: 0; Plant response rating, Crabgrass [12, 29]: 0; Plant response rating, Lambsquarters [13]: 0; Plant response rating, Blackgrass [14, 28]: 0; Plant response rating, Blackgrass [14, 29]: 0; Plant response rating, Barnyardgrass [15, 28]: 0; Plant response rating, Barnyardgrass [15, 29]: 0; Plant response rating, Velvetleaf [16]: 0; Plant response rating, Foxtail, Giant [17, 30]: 20; Plant response rating, Foxtail, Giant [17, 31]: 0; Plant response rating, Rice [18, 30]: 0; Plant response rating, Rice [18, 31]: 0; Plant response rating, Pigweed [19, 30]: 100; Plant response rating, Pigweed [19, 31]: 0; Plant response rating, Surinam grass [20, 30]: 0; Plant response rating, Surinam grass [20, 31]: 0; Plant response rating, Cocklebur [21, 30]: 0; Plant response rating, Cocklebur [21, 31]: 0; Plant response rating, Morningglory [22, 30]: 0; Plant response rating, Morningglory [22, 31]: 0; Plant response rating, Corn [23, 30]: 0; Plant response rating, Corn [23, 31]: 0; Plant response rating, Crabgrass [24, 30]: 30; Plant response rating, Crabgrass [24, 31]: 0; Plant response rating, Lambsquarters [25, 30]: 100; Plant response rating, Lambsquarters [25, 31]: 60; Plant response rating, Barnyardgrass [26, 30]: 0; Plant response rating, Barnyardgrass [26, 31]: 0; Plant response rating, Velvetleaf [27, 30]: 0; Plant response rating, Velvetleaf [27, 31]: 0
